Results taken from ChEMBL document CHEMBL4482316, “Compounds for the inhibition of angiogenesis and use thereof” (2013).
Active and inactive are the calls of the source. No cut-off for these calls is given here.

How the values were obtained:
Rattus norvegicus [1] = experiment: Inhibition of oxygen-induced retinal angiogenesis in Sprague-Dawley rat dosed in right eye at stage at P9 and P11 during ischemic phase that follows oxygen exposure by epifluorescent microscopy; assay type: functional, organism-based
Mus musculus = experiment: Inhibition of corneal neovascularization in C57 mouse dosed via implanted with pumps at 1 uL/hr for 7 days by fluorescence microscopy; assay type: functional, organism-based
K562 = experiment: Inhibition of cell adhesion in human K562 cells at 0.5 uM pre-incubated for 30 mins before cell adhesion to fibronectin for 30 mins by crystal violet staining based assay; assay type: functional
Rattus norvegicus [2] = experiment: Inhibition of retinal angiogenesis in newborn Sprague-Dawley rat dosed intravitreally at P1 stage and P3 by epifluorescent microscopy; assay type: functional, organism-based

`CCC(C)(C)C(=O)N[C@@H](CNC(=O)CO[C@@H]1C[C@@H](CNc2ccccn2)N(C(=O)OCc2ccccc2)C1)C(=O)O` was tested, and the inhibition (Rattus norvegicus [1]) was “Active” and the inhibition (Mus musculus) was “Active”.

With `O=C(CO[C@@H]1C[C@@H](CNc2ccccn2)N(C(=O)OCc2ccccc2)C1)NC[C@H](NC(=O)C1CCCCC1)C(=O)O` the inhibition (Rattus norvegicus [1]) was “Active” and the inhibition (Mus musculus) was “Active”.

With `CC(C)(C)C(=O)N[C@@H](CNC(=O)CO[C@@H]1C[C@@H](CNc2ccccn2)N(C(=O)OCc2ccccc2)C1)C(=O)O` the inhibition (Rattus norvegicus [1]) was “Active” and the inhibition (Mus musculus) was “Active”.

For `O=C(CO[C@@H]1C[C@@H](CNc2ccccn2)N(C(=O)OCc2ccccc2)C1)NC[C@H](NC(=O)c1ccccc1[N+](=O)[O-])C(=O)O`, the inhibition (Rattus norvegicus [1]) was “Active” and the inhibition (Mus musculus) was “Active”.

With `O=C(CO[C@@H]1C[C@@H](CNc2ccccn2)N(C(=O)OCc2ccccc2)C1)NC[C@H](NC(=O)c1ccccc1Cl)C(=O)O` the inhibition (Rattus norvegicus [1]) was “Active” and the inhibition (Mus musculus) was “Active”.

For `COc1cccc(OC)c1C(=O)N[C@@H](CNC(=O)CO[C@@H]1C[C@@H](CNc2ccccn2)N(C(=O)OCc2ccccc2)C1)C(=O)O`, the inhibition (Rattus norvegicus [1]) was “Active” and the inhibition (Mus musculus) was “Active”.

In the case of `COc1ccnc(NC[C@@H]2C[C@@H](OCC(=O)NC[C@H](NC(=O)C3(C)CCCCC3)C(=O)O)CN2C(=O)CC(C)(C)C)c1`, the inhibition (Rattus norvegicus [1]) is reported as “Active” and the inhibition (Mus musculus) is reported as “Active”.

For `Cc1cc(C)c(S(=O)(=O)N[C@@H](CNC(=O)CO[C@@H]2C[C@@H](CNc3ccccn3)N(C(=O)NC3CCCC3)C2)C(=O)O)c(C)c1`, the inhibition (Rattus norvegicus [1]) was “Active” and the inhibition (Mus musculus) was “Active”.

In the case of `Cc1cccc(C)c1C(=O)N[C@@H](CNC(=O)CO[C@@H]1C[C@@H](CNc2ccccn2)N(C(=O)OCc2ccccc2)C1)C(=O)O`, the inhibition (Rattus norvegicus [1]) is reported as “Active” and the inhibition (Mus musculus) is reported as “Active”.

With `C#CCOC(=O)N1C[C@H](OCC(=O)NC[C@H](NS(=O)(=O)c2c(C)cc(C)cc2C)C(=O)O)C[C@H]1CNc1ccccn1` the inhibition (Rattus norvegicus [1]) was “Active” and the inhibition (Mus musculus) was “Active”.

With `Cc1cc(C)c(C(=O)N[C@@H](CNC(=O)CO[C@@H]2C[C@@H](CNc3ccccn3)N(C(=O)OCc3ccccc3)C2)C(=O)O)c(C)c1` the inhibition (K562) was “Active”, the inhibition (Rattus norvegicus [1]) was “Active” and the inhibition (Mus musculus) was “Active”.

In the case of `Cc1cc(C)c(S(=O)(=O)N[C@@H](CNC(=O)CO[C@@H]2C[C@@H](CNc3ccccn3)N(C(=O)CC(C)(C)C)C2)C(=O)O)c(C)c1`, the inhibition (Rattus norvegicus [1]) is reported as “Active” and the inhibition (Mus musculus) is reported as “Active”.

`Cc1cc(C)c(S(=O)(=O)N[C@@H](CNC(=O)CO[C@@H]2C[C@@H](CNc3ccccn3)N(C(=O)OCc3ccccc3)C2)C(=O)O)c(C)c1` was tested, and the inhibition (Rattus norvegicus [1]) was “Active”, the inhibition (Rattus norvegicus [2]) was “Active” and the inhibition (Mus musculus) was “Active”.

`Cc1cc(C)c(S(=O)(=O)N[C@@H](CNC(=O)CO[C@@H]2C[C@@H](CNc3ccccn3)N(C(=O)OCC(C)C)C2)C(=O)O)c(C)c1` was tested, and the inhibition (Rattus norvegicus [1]) was “Active” and the inhibition (Mus musculus) was “Active”.
